Experimental data reported in ChEMBL document CHEMBL6182864, “Design, synthesis and biological evaluation of 3-amino-6-(2-hydroxyphenyl)pyridazin-4-aryl derivatives as SMARCA2/4 degraders” (Eur J Med Chem, 2025).
Activity calls are given as the source filed them. The calls are words filed in the database; no cut-off is given here.

What was measured:
[1] = system: MV4-11; assay: Down regulation of […] mRNA expression in human MV4-11 cells at 11.1 to 33.3 nM measured after 24 hrs by RT-qPCR analysis; type: functional, cell-based; settings: dose 11.1-33.3 nM
[2] = system: MV4-11; assay: Induction of apoptosis in human MV4-11 cells assessed as late apoptotic cells at 300 nM measured after 72 hrs by Annexin-V-FITC/propidium iodide staining based flow cytometry (reference value: 1.09%); type: functional
[3] = system: MV4-11; assay: Down regulation of CDC25A mRNA expression in human MV4-11 cells at 100 to 1000 nM measured after 24 hrs by RT-qPCR analysis; type: functional, cell-based; settings: dose 100-1000 nM
[4] = system: MV4-11; assay: cells; settings: Homo sapiens, MV4-11, 72 h
[5] = system: MV4-11; assay: Induction of apoptosis in human MV4-11 cells assessed as viable cells at 100 nM measured after 72 hrs by Annexin-V-FITC/propidium iodide staining based flow cytometry (reference value: 89.49%); type: functional; settings: read-out: Activity
[6] = system: MV4-11; assay: Induction of apoptosis in human MV4-11 cells assessed as upregulation of PARP expression measured after 72 hrs by Western blot analysis; type: functional, cell-based; settings: dose 100-1000 nM
[7] = system: MV4-11; assay: Induction of apoptosis in human MV4-11 cells assessed as necrotic cells at 1000 nM measured after 72 hrs by Annexin-V-FITC/propidium iodide staining based flow cytometry (reference value: 0.1%); type: functional
[8] = system: MOLM-13; assay: Induction of apoptosis in human MOLM-13 cells assessed as late apoptotic cells at 300 nM measured after 72 hrs by Annexin-V-FITC/propidium iodide staining based flow cytometry (reference value: 3.87%); type: functional
[9] = system: MOLM-13; assay: Induction of apoptosis in human MOLM-13 cells assessed as necrotic cells at 100 nM measured after 72 hrs by Annexin-V-FITC/propidium iodide staining based flow cytometry (reference value: 0.28%); type: functional
[10] = system: MOLM-13; assay: Induction of apoptosis in human MOLM-13 cells assessed as late apoptotic cells at 100 nM measured after 72 hrs by Annexin-V-FITC/propidium iodide staining based flow cytometry (reference value: 3.87%); type: functional
[11] = system: SUD4; assay: cells; settings: Homo sapiens, SU-DHL-4, 72 h
[12] = system: MOLM-13; assay: Antiproliferative activity against human MOLM-13 cells assessed as reduction in cell viability at 100 nM by MTT assay; type: functional, cell-based; settings: time 3-7 day
[13] = system: MV4-11; assay: Induction of apoptosis in human MV4-11 cells assessed as viable cells at 300 nM measured after 72 hrs by Annexin-V-FITC/propidium iodide staining based flow cytometry (reference value: 89.49%); type: functional; settings: read-out: Activity
[14] = system: MV4-11; assay: Cell cycle arrest in human MV4-11 cells assessed as increase in accumulation of cells at G0/G1 phase measured after 48 hrs by propidium iodide staining based flow cytometry; type: functional; settings: dose 100-1000 nM
[15] = system: MCF7; assay: cells; settings: Homo sapiens, MCF7, 72 h
[16] = system: MV4-11; assay: Induction of apoptosis in human MV4-11 cells assessed as early apoptotic cells at 100 nM measured after 72 hrs by Annexin-V-FITC/propidium iodide staining based flow cytometry (reference value: 9.32%); type: functional
[17] = system: MV4-11; assay: Induction of apoptosis in human MV4-11 cells assessed as viable cells at 1000 nM measured after 72 hrs by Annexin-V-FITC/propidium iodide staining based flow cytometry (reference value: 89.49%); type: functional; settings: read-out: Activity
[18] = system: MOLM-13; assay: Induction of apoptosis in human MOLM-13 cells assessed as necrotic cells at 300 nM measured after 72 hrs by Annexin-V-FITC/propidium iodide staining based flow cytometry (reference value: 0.28%); type: functional
[19] = system: A549; assay: cells; settings: Homo sapiens, A549, 72 h
[20] = Half life in SPF Sprague-Dawley rat at 1 mg/kg, iv by LC-MS/MS analysis; type: ADME, organism-based; settings: in vivo
[21] = system: WSUDLCL2; assay: cells; settings: Homo sapiens, WSUDLCL2, 72 h
[22] = system: SNU-449; assay: cells; settings: Homo sapiens, SNU-449, 72 h
[23] = system: MV4-11; assay: Down regulation of PU.1 mRNA expression in human MV4-11 cells at 11.1 to 1000 nM measured after 24 hrs by RT-qPCR analysis; type: functional, cell-based; settings: dose 11.1-1000 nM
[24] = system: MOLM-13; assay: Induction of apoptosis in human MOLM-13 cells assessed as viable cells at 300 nM measured after 72 hrs by Annexin-V-FITC/propidium iodide staining based flow cytometry (reference value: 90.28%); type: functional; settings: read-out: Activity
[25] = system: MV4-11; assay: Down regulation of TRAP1 mRNA expression in human MV4-11 cells at 100 to 1000 nM measured after 24 hrs by RT-qPCR analysis; type: functional, cell-based; settings: dose 100-1000 nM
[26] = system: MV4-11; assay: Down regulation of MYC mRNA expression in human MV4-11 cells measured after 24 hrs by RT-qPCR analysis; type: functional, cell-based; settings: dose 11.1-1000 nM
[27] = MRT (0 to t) in SPF Sprague-Dawley rat at 10 mg/kg, po by LC-MS/MS analysis; type: ADME, organism-based; settings: in vivo
[28] = system: MV4-11; assay: Down regulation of TRAP1 mRNA expression in human MV4-11 cells at 11.1 to 33.3 nM measured after 24 hrs by RT-qPCR analysis; type: functional, cell-based; settings: dose 11.1-33.3 nM
[29] = Tmax in SPF Sprague-Dawley rat at 10 mg/kg, po by LC-MS/MS analysis; type: ADME, organism-based; settings: in vivo
[30] = Cmax in SPF Sprague-Dawley rat at 1 mg/kg, iv by LC-MS/MS analysis; type: ADME, organism-based; settings: in vivo
[31] = system: MV4-11; assay: Induction of apoptosis in human MV4-11 cells assessed as late apoptotic cells at 100 nM measured after 72 hrs by Annexin-V-FITC/propidium iodide staining based flow cytometry (reference value: 1.09%); type: functional
[32] = AUC (0 to t) in SPF Sprague-Dawley rat at 1 mg/kg, iv by LC-MS/MS analysis; type: ADME, organism-based; settings: in vivo
[33] = system: MV4-11; assay: Induction of apoptosis in human MV4-11 cells assessed as early apoptotic cells at 1000 nM measured after 72 hrs by Annexin-V-FITC/propidium iodide staining based flow cytometry (reference value: 9.32%); type: functional
[34] = system: MV4-11; assay: Induction of apoptosis in human MV4-11 cells assessed as upregulation of cleaved caspase-3 expression measured after 72 hrs by Western blot analysis; type: functional, cell-based; settings: dose 100-1000 nM
[35] = system: MOLM-13; assay: Induction of apoptosis in human MOLM-13 cells assessed as viable cells at 100 nM measured after 72 hrs by Annexin-V-FITC/propidium iodide staining based flow cytometry (reference value: 90.28%); type: functional; settings: read-out: Activity
[36] = Down regulation of SMARCA2 level in human MV4-11 cells at 100 nM measured after 6 hrs by mass spectrometric proteomic analysis relative to control; type: functional
[37] = system: MV4-11; assay: Induction of apoptosis in human MV4-11 cells assessed as necrotic cells at 100 nM measured after 72 hrs by Annexin-V-FITC/propidium iodide staining based flow cytometry (reference value: 0.1%); type: functional
[38] = system: MV4-11; assay: Induction of apoptosis in human MV4-11 cells assessed as necrotic cells at 300 nM measured after 72 hrs by Annexin-V-FITC/propidium iodide staining based flow cytometry (reference value: 0.1%); type: functional

IC50 [4]: 0.005 µM
IC50 [11]: 0.088 µM
IC50 [15]: > 30 µM
IC50 [19]: 6.02 µM
half-life [20]: 115 min
IC50 [21]: 0.337 µM
IC50 [22]: 21.5 µM
MRT last [27]: 48.6 min
Tmax [29]: 25.2 min
Cmax [30]: 1950 ng/mL
AUCt [32]: 358 ng·h/mL
SMILES: Cc1ncsc1-c1ccc([C@H](C)NC(=O)[C@@H]2C[C@@H](O)CN2C(=O)[C@@H](NC(=O)C2(c3ccc(-c4cc(-c5ccccc5O)nnc4N)cc3)CC2)C(C)(C)C)cc1
Activity [1]: inactive
Activity [2]: 20.37%
Activity [3]: Active
viability at 0.1 µM [5]: 32.3%
Activity [6]: Dose-dependent-effect
Activity [7]: 1.67%
Activity [8]: 14.39%
Activity [9]: 0.19%
Activity [10]: 6.91%
Activity [12]: Time-dependent-effect; Complete Reduction Was Achieved On Day 7
viability at 0.3 µM [13]: 24.4%
Activity [14]: Dose-dependent-effect
Activity [16]: 47.5%
viability at 1 µM [17]: 22.1%
Activity [18]: 0.31%
Activity [23]: Active
viability at 0.3 µM [24]: 27.1%
Activity [25]: Active
Activity [26]: Dose-dependent-effect
Activity [28]: inactive
Activity [31]: 18.96%
Activity [33]: 51.91%
Activity [34]: Dose-dependent-effect
viability at 0.1 µM [35]: 54.1%
Activity [36]: >=50%
Activity [37]: 1.26%
Activity [38]: 1.1%
